Laboratory results taken from patent US9695155B2, “Herbicidal substituted pyrimidinyloxy benzene compounds” (E. I. DU PONT DE NEMOURS AND COMPANY, priority 2013, dated 2017).

Experiments:
corn = assay: Test A preemergence; type: in vivo, Zea mays
Method in brief: (§1)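 Greenhouse pot test, loam/sand soil. Formulation: non-phytotoxic solvent mix plus surfactant. Pre: directed spray onto soil after sowing. Post: plants at 1–2 leaf, 2–10 cm. Rated visually vs untreated controls at ~10 d, 0 (no effect) to 100 (complete control).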

large (Lg) crabgrass [1] = assay: Test A preemergence; type: in vivo, Digitaria sanguinalis; details: for pest or weed control at 125 g/ha / pest or weed control at 500 g/ha: Digitaria sanguinalis, pre-emergence, 240 h
Method in brief: as §1

rice = assay: Test B flooded paddy test; type: in vivo, Oryza sativa; details: Flood, 250 g ai/ha, 0 to 100 scale where 0 is no effect and 100 is complete control; for plant injury at 250 g/ha: Oryza sativa, read-out: Plant response rating, Rice
Method in brief: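 Post-emergence paddy-water application at the 2-leaf stage, with 3 cm flood kept for the whole test. Response was judged visually relative to controls after 13 to 15 greenhouse days, 0 indicating no effect and 100 complete control.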

large (Lg) crabgrass [2] = assay: Test C preemergence; type: in vivo, Digitaria sanguinalis
Description: (§2) Seeds of plant species selected from blackgrass (Alopecurus myosuroides), Italian ryegrass (Lolium multiflorum), wheat, winter (winter wheat, Triticum aestivum), galium (catchweed bedstraw, Galium aparine), corn (Zea mays), large (Lg) crabgrass (Digitaria sanguinalis), giant foxtail (Setaria faberii), johnsongrass (Sorghum halepense), lambsquarters (Chenopodium album), morningglory (Ipomoea coccinea), yellow nutsedge (Cyperus esculentus), pigweed (Amaranthus retroflexus), ragweed (common ragweed, Ambrosia elatior), soybean (Glycine max), barnyardgrass (Echinochloa crus-galli), oilseed rape (Brassica napus), waterhemp (common waterhemp, Amaranthus rudis), kochia (Kochia scoparia), wild oat (Avena fatua), surinam grass (Brachiaria decumbens), foxtail, green (green foxtail, Setaria viridis), goosegrass (Eleusine indica), bromegrass, downy (downy bromegrass, Bromus tectorum), nightshade (eastern black nightshade, Solanum ptycanthum), cocklebur (common cocklebur, Xanthium strumarium), cupgrass, woolly (woolly cupgrass, Eriochloa villosa), bermudagrass (Cynodon dactylon), sunflower, (common oilseed sunflower, Helianthus annuus), Russian thistle (Salsola kali), and velvetleaf (Abutilon theophrasti) were planted into a blend of loam soil and sand and treated preemergence with test chemicals formulated in a non-phytotoxic solvent mixture which included a surfactant.
(§3) At the same time, plants selected from these crop and weed species and also barley, winter (winter barley, Hordeum vulgare), windgrass (Apera spica-venti), chickweed (common chickweed, Stellaria media), deadnettle (henbit deadnettle, Lamium amplexicaule), and canarygrass (littleseed canarygrass, Phalaris minor) were planted in pots containing Redi-Earth® planting medium (Scotts Company, 14111 Scottslawn Road, Marysville, Ohio 43041) comprising spaghnum peat moss, vermiculite, wetting agent and starter nutrients and treated with postemergence applications of test chemicals formulated in the same manner. Plants ranged in height from 2 to 18 cm (1- to 4-leaf stage) for postemergence treatments. Treated plants and controls were maintained in a greenhouse for 13 to 15 days, after which time all species were compared to controls and visually evaluated. Plant response ratings, summarized in Table C, are based on a scale of 0 to 100 where 0 is no effect and 100 is complete control. A dash (-) response means no test result.

lambsquarters = assay: Test C preemergence; type: in vivo, Chenopodium album
Description: as §2, §3

johnsongrass = assay: Test C preemergence; type: in vivo, Sorghum halepense
Description: as §2, §3

[3] = Zea mays, pre-emergence, 240 h, 500 g ai/ha, 0 to 100 scale, 0 no effect, 100 complete control, approx. 10 days, read-out: Corn plant response rating
[4] = 500 g ai/ha, 0 to 100 scale, 0 no effect, 100 complete control, approx. 10 days, read-out: Crabgrass, Large plant response rating
[5] = 125 g ai/ha, 0 to 100 scale where 0 is no effect and 100 is complete control
[6] = 500 g ai/ha, 0 to 100 scale, 0 no effect, 100 complete control, approx. 10 days
[7] = 16 g ai/ha, preemergence, scale 0 to 100 (0 no effect, 100 complete control)
[8] = 62 g ai/ha, preemergence, scale 0 (no effect) to 100 (complete control)
[9] = 125 g ai/ha, preemergence, scale 0 (no effect) to 100 (complete control)
[10] = Preemergence, 31 g ai/ha, scale 0 to 100, 0 no effect, 100 complete control

Question: For `FC(F)(F)c1ccn(-c2ccccc2Oc2ncc(Cl)cn2)n1` [Compound 2, 5-chloro-2-[2-[3-(trifluoromethyl)-1H-pyrazol-1-yl]phenoxy]pyrimidine], which plant injury at 125 g/ha (corn; Zea mays, pre-emergence, 240 h, 125 g ai/ha, 0 to 100 scale where 0 is no effect and 100 is complete control, read-out: Corn plant response rating) is on record?
Answer: Its plant injury at 125 g/ha is 0%.

Question: What about the plant injury at 500 g/ha (corn; [3]) of the same compound?
Answer: The plant injury at 500 g/ha was 30%.

Question: And the pest or weed control at 125 g/ha (large (Lg) crabgrass [1]; 125 g ai/ha, 0 to 100 scale where 0 is no effect and 100 is complete control, read-out: Crabgrass, Large plant response rating)?
Answer: The pest or weed control at 125 g/ha was 80%.

Question: And the pest or weed control at 500 g/ha (large (Lg) crabgrass [1]; [4])?
Answer: Its pest or weed control at 500 g/ha is 100%.

Question: What about the plant injury at 250 g/ha (rice) of the same compound?
Answer: Its plant injury at 250 g/ha is 0%.

Question: Which results are given for `Clc1cnc(Oc2ccccc2-n2cc(Cl)cn2)nc1` [Compound 3]?
Answer: Corn plant response rating (corn; [5]): 0; Corn plant response rating (corn; [6]): 10; Crabgrass, Large plant response rating (large (Lg) crabgrass [1]; [5]): 90; Crabgrass, Large plant response rating (large (Lg) crabgrass [1]; [6]): 100; Plant response rating, Rice (rice): 0

Question: For `FC(F)(F)c1cnn(-c2ccccc2Oc2ncc(Br)cn2)c1` [Compound 18, 5-bromo-2-[2-[4-(trifluoromethyl)-1H-pyrazol-1-yl]phenoxy]pyrimidine], which pest or weed control at 62 g/ha (large (Lg) crabgrass [2]; Digitaria sanguinalis, pre-emergence, 62 g ai/ha, preemergence, scale 0 (no effect) to 100 (complete control), read-out: Crabgrass, Large plant response rating) is on record?
Answer: The pest or weed control at 62 g/ha was 100%.

Question: And the pest or weed control at 125 g/ha (large (Lg) crabgrass [2]; Digitaria sanguinalis, pre-emergence, 125 g ai/ha, preemergence, scale 0 (no effect) to 100 (complete control), read-out: Crabgrass, Large plant response rating)?
Answer: Its pest or weed control at 125 g/ha is 100%.

Question: What about the pest or weed control at 250 g/ha (large (Lg) crabgrass [2]; Digitaria sanguinalis, pre-emergence, 250 g ai/ha, preemergence, scale 0 (no effect) to 100 (complete control), read-out: Crabgrass, Large plant response rating) of the same compound?
Answer: The pest or weed control at 250 g/ha was 100%.

Question: What about the pest or weed control at 31 g/ha (large (Lg) crabgrass [2]; Digitaria sanguinalis, pre-emergence, Preemergence, 31 g ai/ha, scale 0 to 100, 0 no effect, 100 complete control, read-out: Plant response rating, Crabgrass, Large) of the same compound?
Answer: Its pest or weed control at 31 g/ha is 75%.

Question: What about the pest or weed control at 62 g/ha (lambsquarters; Chenopodium album, pre-emergence, 62 g ai/ha, preemergence, scale 0 (no effect) to 100 (complete control), read-out: Lambsquarters plant response rating) of the same compound?
Answer: Its pest or weed control at 62 g/ha is 50%.

Question: And the pest or weed control at 125 g/ha (lambsquarters; Chenopodium album, pre-emergence, 125 g ai/ha, preemergence, scale 0 (no effect) to 100 (complete control), read-out: Lambsquarters plant response rating)?
Answer: Its pest or weed control at 125 g/ha is 65%.

Question: And the pest or weed control at 250 g/ha (lambsquarters; Chenopodium album, pre-emergence, 250 g ai/ha, preemergence, scale 0 (no effect) to 100 (complete control), read-out: Lambsquarters plant response rating)?
Answer: The pest or weed control at 250 g/ha was 80%.

Question: What about the pest or weed control at 31 g/ha (lambsquarters; Chenopodium album, pre-emergence, Preemergence, 31 g ai/ha, scale 0 to 100, 0 no effect, 100 complete control, read-out: Plant response rating, Lambsquarters) of the same compound?
Answer: Its pest or weed control at 31 g/ha is 30%.

Question: And the Corn plant response rating (crop injury, 0 = no effect, 100 = complete kill) at 125 g/ha (corn; Zea mays, pre-emergence, 240 h, 125 g ai/ha, 0 to 100 scale where 0 is no effect and 100 is complete control)?
Answer: The Corn plant response rating (crop injury, 0 = no effect, 100 = complete kill) at 125 g/ha was 0%.

Question: And the plant injury at 500 g/ha (corn; [3])?
Answer: Its plant injury at 500 g/ha is 10%.

Question: What about the pest or weed control at 125 g/ha (large (Lg) crabgrass [1]; 125 g ai/ha, 0 to 100 scale where 0 is no effect and 100 is complete control, read-out: Plant response rating, Crabgrass, Large) of the same compound?
Answer: The pest or weed control at 125 g/ha was 100%.

Question: And the pest or weed control at 500 g/ha (large (Lg) crabgrass [1]; [4])?
Answer: The pest or weed control at 500 g/ha was 100%.

Question: And the plant injury at 250 g/ha (rice)?
Answer: The plant injury at 250 g/ha was 0%.

Question: What about the pest or weed control at 62 g/ha (johnsongrass; Sorghum halepense, pre-emergence, 62 g ai/ha, preemergence, scale 0 (no effect) to 100 (complete control), read-out: Johnsongrass plant response rating) of the same compound?
Answer: The pest or weed control at 62 g/ha was 30%.

Question: And the pest or weed control at 125 g/ha (johnsongrass; Sorghum halepense, pre-emergence, 125 g ai/ha, preemergence, scale 0 (no effect) to 100 (complete control), read-out: Johnsongrass plant response rating)?
Answer: Its pest or weed control at 125 g/ha is 80%.

Question: And the pest or weed control at 250 g/ha (johnsongrass; Sorghum halepense, pre-emergence, 250 g ai/ha, preemergence, scale 0 (no effect) to 100 (complete control), read-out: Johnsongrass plant response rating)?
Answer: Its pest or weed control at 250 g/ha is 98%.

Question: What about the pest or weed control at 31 g/ha (johnsongrass; Sorghum halepense, pre-emergence, Preemergence, 31 g ai/ha, scale 0 to 100, 0 no effect, 100 complete control, read-out: Plant response rating, Johnsongrass) of the same compound?
Answer: The pest or weed control at 31 g/ha was 30%.

Question: Which “Crabgrass, Large plant response rating” value (large (Lg) crabgrass [2]; [7]) does the source give for `FCc1cccc(Oc2ncc(F)cn2)c1-n1cc(C(F)(F)F)cn1` [Compound 118] here?
Answer: Its value is 30.

Question: What about the “Crabgrass, Large plant response rating” value (large (Lg) crabgrass [2]; [8]) of the same compound?
Answer: Its value is 85.

Question: And the “Crabgrass, Large plant response rating” value (large (Lg) crabgrass [2]; [9])?
Answer: The value was 100.

Question: What about the “Plant response rating, Crabgrass, Large” value (large (Lg) crabgrass [2]; [10]) of the same compound?
Answer: Its value is 80.

Question: And the “Lambsquarters plant response rating” value (lambsquarters; [7])?
Answer: The value was 100.

Question: And the “Lambsquarters plant response rating” value (lambsquarters; [8])?
Answer: The value was 100.

Question: And the “Lambsquarters plant response rating” value (lambsquarters; [9])?
Answer: Its value is 100.

Question: And the “Plant response rating, Lambsquarters” value (lambsquarters; [10])?
Answer: The value was 100.

Question: What about the “Plant response rating, Rice” value (rice) of the same compound?
Answer: The value was 60.

Question: What about the “Johnsongrass plant response rating” value (johnsongrass; [7]) of the same compound?
Answer: The value was 0.

Question: What about the “Johnsongrass plant response rating” value (johnsongrass; [8]) of the same compound?
Answer: Its value is 85.

Question: And the “Johnsongrass plant response rating” value (johnsongrass; [9])?
Answer: The value was 100.

Question: And the “Plant response rating, Johnsongrass” value (johnsongrass; [10])?
Answer: Its value is 25.
